Data reported in patent EP0993437B1, “2-(4-BROMO OR 4-IODO PHENYLAMINO) BENZOIC ACID DERIVATIVES AND THEIR USE AS MEK INHIBITORS” (Warner-Lambert Company LLC, priority 1997, dated 1999).

Target: MEK
Assay: Cascade assay for inhibitors of the MAP kinase pathway (In Vitro)
Assay type: biochemical
Procedure: Incorporation of ^32P into myelin basic protein (MBP) was assayed in the presence of a glutathione S-transferase fusion protein containing p44MAP kinase (GST-MAPK) and a glutathione S-transferase fusion protein containing p45MEK (GST-MEK). The assay solution contained 20 mM HEPES, pH 7.4, 10 mM MgCl2, 1-mM MnCl2, 1 mM EGTA, 50 µM [γ-^32P]ATP, 10 µg GST-MEK, 0.5 µg GST-MAPK and 40 µg MBP in a final volume of 100 µL. […] Compounds were assessed at 10 µM for ability to inhibit incorporation of ^32P.
To ascertain whether compounds were inhibiting GST-MEK or GST MAPK, two additional protocols were employed. In the first protocol, compounds were added to tubes containing GST-MEK, followed by addition of GST-MAPK, MBP and [γ-^32P]ATP.

Row | IC50 | Molecule
1 | 19 nM | Cc1cc(I)ccc1Nc1cc(F)ccc1C(=O)O [Example 1, 4-Fluoro-2-(4-iodo-2-methylphenylamino)benzoic acid]
2 | 66 nM | O=C(O)c1cc(Cl)ccc1Nc1ccc(I)cc1Cl [Example 5, 5-Chloro-2-(2-chloro-4-iodo-phenylamino)-benzoic acid]
3 | 71 nM | Cc1cc(I)ccc1Nc1ccc(Cl)cc1C(=O)O [Example 6, 5-Chloro-2-(4-iodo-2-methyl-phenylamino)-benzoic acid]
4 | 86 nM | Cc1cc(I)ccc1Nc1ccc(Br)cc1C(=O)O [Example 8, 5-Bromo-2-(4-iodo-2-methyl-phenylamino)-benzoic acid]
5 | 97 nM | O=C(O)c1cc([N+](=O)[O-])ccc1Nc1ccc(I)cc1Cl [Example 9, 2-(2-Chloro-4-iodo-phenylamino)-5-nitro-benzoic acid]
6 | 101 nM | Cc1c(Nc2cc(F)ccc2C(=O)O)ccc(I)c1F [Example 10, 4-Fluoro-2-(3-fluoro-4-iodo-2-methyl-phenylamino)-benzoic acid]
7 | 128 nM | Cc1cc(I)ccc1Nc1ccc([N+](=O)[O-])cc1C(=O)O [Example 11, 2-(4-Iodo-2-methyl-phenylamino)-5-nitro-benzoic acid]
8 | 135 nM | O=C(O)c1cc([N+](=O)[O-])ccc1Nc1ccc(I)cc1F [Example 12, 2-(2-Fluoro-4-iodo-phenylamino)-5-nitro-benzoic acid]
9 | 178 nM | Cc1cc(Br)ccc1Nc1cc(F)ccc1C(=O)O [Example 13, 2-(4-Bromo-2-methyl-phenylamino)-4-fluoro-benzoic acid]
10 | 179 nM | O=C(O)c1cc([N+](=O)[O-])ccc1Nc1ccc(I)cc1Br [Example 14, 2-(2-Bromo-4-iodo-phenylamino)-5-nitro-benzoic acid]
11 | 194 nM | Cc1cc(Br)ccc1Nc1c(C(=O)O)ccc(F)c1F [Example 15, 2-(4-Bromo-2-methyl-phenylamino)-3,4-difluoro-benzoic acid]
12 | 323 nM | Cc1cc(I)ccc1Nc1c(F)cccc1C(=O)O [Example 16, 3-Fluoro-2-(4-iodo-2-methyl-phenylamino)-benzoic acid]
13 | 434 nM | COc1cc(I)ccc1Nc1c(C(=O)O)ccc(F)c1F [Example 17, 3,4-Difluoro-2-(4-iodo-2-methoxy-phenylamino)-benzoic acid]
14 | 446 nM | Cc1cc(I)ccc1Nc1cc(Cl)ccc1C(=O)O [Example 18, 4-Chloro-2-(4-iodo-2-methyl-phenylamino)-benzoic acid]
15 | 557 nM | Cc1cc(I)ccc1Nc1ccc(F)cc1C(=O)O [Example 20, 5-Fluoro-2-(4-iodo-2-methyl-phenylamino)-benzoic acid]
16 | 569 nM | Cc1cc(I)ccc1Nc1ccc(I)cc1C(=O)O [Example 21, 5-Iodo-2-(4-iodo-2-methyl-phenylamino)-benzoic acid]
17 | 1590 nM | Cc1c(Nc2cc(F)ccc2C(=O)O)ccc(I)c1Cl [Example 23, 4-Fluoro-2-(3-chloro-4-iodo-2-methyl-phenylamino)-benzoic acid]
18 | 1940 nM | COc1ccc(Nc2ccc(I)cc2)c(C(=O)O)c1 [Example 24, 2-(4-Iodo-phenylamino)-5-methoxy-benzoic acid]
19 | 2360 nM | O=C(O)c1cccc(Cl)c1Nc1ccc(I)cc1Cl [Example 25, 3-Chloro-2-(2-chloro-4-iodo-phenylamino)-benzoic acid]
20 | 3670 nM | Cc1ccc(Nc2ccc(I)cc2C)c(C(=O)O)c1 [Example 28, 5-Methyl-2-(4-iodo-2-methyl-phenylamino)-benzoic acid]
21 | 5330 nM | Cc1cc(I)ccc1Nc1cccc(Cl)c1C(=O)O [Example 29, 2-Chloro-6-(4-iodo-2-methyl-phenylamino)-benzoic acid]
22 | 226 nM | Cc1cc(I)ccc1Nc1ccc(Cl)cc1C(=O)NCCO [Example 31, 5-Chloro-N-(2-hydroxyethyl)-2-(4-iodo-2-methyl-phenylamino)-benzamide]
23 | 28 nM | COc1ccc(NC(=O)c2ccc(OC)c([N+](=O)[O-])c2)cc1 [Example 32, 4-Methoxy-N-(4-methoxy-phenyl)-3-nitro-benzamide]
24 | 52 nM | Cc1cc(I)ccc1Nc1cc(F)ccc1C(N)=O [Example 33, 4-Fluoro-2-(4-iodo-2-methyl-phenylamino)-benzamide]

Row | IC50 | Molecule
25 | 98 nM | CNC(=O)c1ccc(F)cc1Nc1ccc(I)cc1C [Example 34, 4-Fluoro-2-(4-iodo-2-methyl-phenylamino)-N-methyl-benzamide]
26 | 121 nM | CCNC(=O)c1ccc(F)cc1Nc1ccc(I)cc1C [Example 35, N-Ethyl-4-fluoro-2-(4-iodo-2-methyl-phenylamino)-benzamide]
27 | 129 nM | Cc1cc(I)ccc1Nc1cc(F)ccc1C(=O)N(C)C [Example 36, 4-Fluoro-2-(4-iodo-2-methyl-phenylamino)-N,N-dimethyl-benzamide]
28 | 237 nM | Cc1cc(I)ccc1Nc1cc(F)ccc1C(=O)Nc1nnn[nH]1 [Example 37, 4-Fluoro-2-(4-iodo-2-methyl-phenylamino)-N-(1H-tetrazol-5-yl)-benzamide]
29 | 412 nM | Cc1cc(I)ccc1Nc1ccc(Br)cc1C(N)=O [Example 38, 5-Bromo-2-(4-iodo-2-methyl-phenylamino)-benzamide]
30 | 497 nM | Cc1cc(I)ccc1Nc1ccc(Cl)cc1C(=O)N(C)C [Example 39, 5-Chloro-2-(4-iodo-2-methyl-phenylamino)-N,N-dimethyl-benzamide]
31 | 872 nM | CCCNC(=O)c1ccc(F)cc1Nc1ccc(I)cc1C [Example 41, 4-Fluoro-2-(4-iodo-2-methyl-phenylamino)-N-propyl-benzamide]
32 | 920 nM | Cc1cc(I)ccc1Nc1ccc(Br)cc1C(=O)NCCO [Example 42, 5-Bromo-N-(2-hydroxy-ethyl)-2-(4-iodo-2-methyl-phenylamino)-benzamide]
33 | > 1000 nM | CCN(CC)C(=O)c1ccc(F)cc1Nc1ccc(I)cc1C [Example 43, N,N-Diethyl-4-fluoro-2-(4-iodo-2-methyl-phenylamino)-benzamide]
34 | 1480 nM | Cc1cc(I)ccc1Nc1cc(F)ccc1C(=O)NCCCN1CCN(CCO)CC1 [Example 44, 4-Fluoro-N-{3-[4-(2-hydroxy-ethyl)-piperazin-1-yl]-propyl}-2-(4-iodo-2-methyl-phenylamino)-benzamide]
35 | 1760 nM | CCN(CC)C(=O)c1cc([N+](=O)[O-])ccc1Nc1ccc(I)cc1C [Example 45, N,N-Diethyl-2-(4-iodo-2-methyl-phenylamino)-5-nitro-benzamide]
36 | 1810 nM | CCCCNC(=O)c1ccc(F)cc1Nc1ccc(I)cc1C [Example 46, N-Butyl-4-fluoro-2-(4-iodo-2-methyl-phenylamino)-benzamide]
37 | 1910 nM | CCN(CC)C(=O)c1cc(Cl)ccc1Nc1ccc(I)cc1C [Example 47, 5-Chloro-N,N-diethyl-2-(4-iodo-2-methyl-phenylamino)-benzamide]
38 | 1940 nM | Cc1cc(I)ccc1Nc1ccc(Br)cc1C(=O)N(C)C [Example 48, 5-Bromo-2-(4-iodo-2-methyl-phenylamino)-N,N-dimethyl-benzamide]
39 | 179 nM | Cc1cc(I)ccc1Nc1ccc(Cl)cc1CO [Example 50, [5-Chloro-2-(4-iodo-2-methyl-phenylamino)-phenyl]-methanol]
40 | 887 nM | Cc1cc(I)ccc1Nc1ccc([N+](=O)[O-])cc1CO [Example 51, [2-(4-Iodo-2-methyl-phenylamino)-5-nitro-phenyl]-methanol]
41 | 2350 nM | Cc1cc(I)ccc1Nc1ccc(Br)cc1CO [Example 52, [5-Bromo-2-(4-iodo-2-methyl-phenylamino)-phenyl]-methanol]
42 | 253 nM | Cc1cc(I)ccc1Nc1ccc(Br)cc1C(=O)NCCCN1CCN(CCO)CC1 [Example 92, 5-Bromo-N-{3-[4-(2-hydroxy-ethyl)-piperazin-1-yl]-propyl}-2-(4-iodo-2-methyl-phenylamino)-benzamide]
43 | 521 nM | CCN(CC)CCNC(=O)c1cc(Cl)ccc1Nc1ccc(I)cc1C [Example 93, 5-Chloro-N-(2-diethylamino-ethyl)-2-(4-iodo-2-methyl-phenylamino)-benzamide]
44 | 1000 nM | Cc1cc(I)ccc1Nc1ccc([N+](=O)[O-])cc1C(=O)N1CCC(O)C1 (stereo not drawn) [Example 95, (3-Hydroxy-pyrrolidin-1-yl)-[2-(4-iodo-2-methyl-phenylamino)-5-nitro-phenyl]-methanone]
45 | 374 nM | Cc1cc(I)ccc1Nc1ccc(Cl)cc1C(=O)NCCN1CCCC1 [Example 96, 5-Chloro-2-(4-iodo-2-methyl-phenylamino)-N-(2-pyrrolidin-1-yl-ethyl)-benzamide]
46 | 1990 nM | Cc1cc(I)ccc1Nc1ccc(Br)cc1C(=O)N1CCC(O)C1 (stereo not drawn) [Example 100, [5-Bromo-2-(4-iodo-2-methyl-phenylamino)-phenyl]-(3-hydroxy-pyrrolidin-1-yl)-]
47 | 278 nM | Cc1cc(I)ccc1Nc1ccc([N+](=O)[O-])cc1C(=O)NC1CCCCC1 [Example 184, N-Cyclohexyl-2-(4-iodo-2-methyl-phenylamino)-5-nitro-benzamide]

Row | Molecule | IC50
48 | 5-Bromo-3,4-difluoro-2-(4-iodo-2-methyl-phenylamino)-N-(2-piperidin-1-yl-ethyl)-benzamide [Example 55] | 114 nM
49 | 5-Bromo-3,4-difluoro-N-(2-hydroxy-ethyl)-2-(4-iodo-2-methyl-phenylamino)-benzamide [Example 53] | 47 nM
50 | 5-Fluoro-N-{3-[4-(2-hydroxy-ethyl)-piperazin-1-yl]-propyl}-2-(4-iodo-2-methyl-phenylamino)-benzamide [Example 90] | 604 nM
51 | Cc1cc(I)ccc1Nc1ccc(Cl)cc1C(=O)NCC(=O)O [Example 40] | 651 nM
